Experiments:
[1] = biological target: T1, α-amylase (porcine pancreatic amylase) (Sus scrofa, UniProt P00690); assay: starch hydrolysis / dinitrosalicylate colorimetric alpha-amylase inhibition assay; percent inhibition at […] µg; assay type: biochemical
T1 construct: gene AMY2
T1 sequence (P00690 16-511): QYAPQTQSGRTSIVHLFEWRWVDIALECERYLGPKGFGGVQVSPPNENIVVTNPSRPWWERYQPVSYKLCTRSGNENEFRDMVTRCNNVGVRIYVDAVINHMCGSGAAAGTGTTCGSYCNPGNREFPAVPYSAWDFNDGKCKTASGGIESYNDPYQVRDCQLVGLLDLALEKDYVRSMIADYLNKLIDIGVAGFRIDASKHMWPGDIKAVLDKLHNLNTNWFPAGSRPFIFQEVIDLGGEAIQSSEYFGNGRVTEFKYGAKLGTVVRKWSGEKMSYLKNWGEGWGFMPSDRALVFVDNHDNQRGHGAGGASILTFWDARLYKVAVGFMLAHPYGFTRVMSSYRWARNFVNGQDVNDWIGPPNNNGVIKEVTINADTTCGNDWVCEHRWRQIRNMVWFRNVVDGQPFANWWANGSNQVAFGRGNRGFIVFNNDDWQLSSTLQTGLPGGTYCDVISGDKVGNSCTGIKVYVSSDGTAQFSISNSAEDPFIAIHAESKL

[2] = biological target: T1, α-amylase (porcine pancreatic amylase); assay: starch hydrolysis / dinitrosalicylate colorimetric alpha-amylase inhibition assay; assay type: biochemical

| Structure (SMILES) | % [1] | IC50 [2] |
| --- | --- | --- |
| C[C@H]1O[C@H](O[C@H]2[C@H](O)[C@@H](O)[C@@H](O[C@H]3[C@H](O)[C@@H](O)C(O)O[C@@H]3CO)O[C@@H]2CO)[C@H](O)[C@@H](O)[C@@H]1N[C@H]1C=C(CO)[C@@H](O)[C@H](O)[C@H]1O (some centres unmarked) [acarbose] | 87.08 ± 1.328% |  |
| COC(=O)[C@@]1(O)c2ccccc2C(=O)[C@]1(O)CC=C(C)C [indanone derivative, methyl (1R trans, 2S trans)-1,2-dihydroxy-2-(3-methylbut-2-en-1-yl)-3-oxo-2,3-dihydro-1H-indene-1-carboxylate] |  | 46.4 µM |

— PMC11053151, “Anti-inflammatory and anti-diabetic properties of indanone derivative isolated from Fernandoa adenophylla in vitro and in silico studies” (Scientific Reports, 2024)
